Measurements taken from ChEMBL document CHEMBL4422610, “HDAC as onco target: Reviewing the synthetic approaches with SAR study of their inhibitors” (Eur J Med Chem, 2018).
Each block holds one molecule with its values, some of them ahead of it.

Experiments:
[1] = target: Histone deacetylase 2 (Homo sapiens, UniProt Q92769)
[2] = target: Histone deacetylase 3/Nuclear receptor corepressor 2 (HDAC3/NCoR2) (Homo sapiens, UniProt O15379); assay: Inhibition of human recombinant full length C-terminal His-tagged HDAC3 (1 to 428 residues)/N-terminal GST-tagged NCOR2 (395 to 489 residues) expressed in insect cells using Boc-l-Lys(Ac)-AMC as substrate preincubated up to 3 hrs and measured after 35 mins by fluorescence assay
[3] = target: T1, Histone deacetylase 8 (Homo sapiens, UniProt Q9BY41); assay: Inhibition of HDAC8 (unknown origin) expressed in Escherichia coli using BML-KI-178 as substrate preincubated up to 3 hrs and measured after 35 mins by fluorescence assay
T1 sequence (Q9BY41 whole entry): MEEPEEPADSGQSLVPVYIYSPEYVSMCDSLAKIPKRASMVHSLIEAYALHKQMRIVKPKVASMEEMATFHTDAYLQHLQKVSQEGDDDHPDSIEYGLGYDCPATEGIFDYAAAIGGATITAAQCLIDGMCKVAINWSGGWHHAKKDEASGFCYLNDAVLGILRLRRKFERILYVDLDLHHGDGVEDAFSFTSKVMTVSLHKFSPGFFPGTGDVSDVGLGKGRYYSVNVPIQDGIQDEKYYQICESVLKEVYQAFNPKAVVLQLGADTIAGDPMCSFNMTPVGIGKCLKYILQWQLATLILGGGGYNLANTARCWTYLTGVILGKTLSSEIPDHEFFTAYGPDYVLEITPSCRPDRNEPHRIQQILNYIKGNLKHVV

[4] = target: T2, Histone deacetylase 1 (Homo sapiens, UniProt Q13547); assay: Inhibition of recombinant human FLAG/His-tagged HDAC1 expressed in baculovirus expression system using Boc-l-Lys(Ac)-AMC as substrate preincubated up to 3 hrs and measured after 35 mins by fluorescence assay
[5] = target: T1, Histone deacetylase 8; assay: Inhibition of HDAC8 in human HeLa nuclear extract using Boc-Lys(acetyl)-AMC as substrate measured after 30 mins by fluorescence assay; assay type: cell-free
[6] = target: T3, Protein deacetylase HDAC6 (Homo sapiens, UniProt Q9UBN7); assay: Inhibition of HDAC6 in human HeLa nuclear extract using Boc-Lys(acetyl)-AMC as substrate measured after 30 mins by fluorescence assay; assay type: cell-free
T3 sequence (Q9UBN7 whole entry): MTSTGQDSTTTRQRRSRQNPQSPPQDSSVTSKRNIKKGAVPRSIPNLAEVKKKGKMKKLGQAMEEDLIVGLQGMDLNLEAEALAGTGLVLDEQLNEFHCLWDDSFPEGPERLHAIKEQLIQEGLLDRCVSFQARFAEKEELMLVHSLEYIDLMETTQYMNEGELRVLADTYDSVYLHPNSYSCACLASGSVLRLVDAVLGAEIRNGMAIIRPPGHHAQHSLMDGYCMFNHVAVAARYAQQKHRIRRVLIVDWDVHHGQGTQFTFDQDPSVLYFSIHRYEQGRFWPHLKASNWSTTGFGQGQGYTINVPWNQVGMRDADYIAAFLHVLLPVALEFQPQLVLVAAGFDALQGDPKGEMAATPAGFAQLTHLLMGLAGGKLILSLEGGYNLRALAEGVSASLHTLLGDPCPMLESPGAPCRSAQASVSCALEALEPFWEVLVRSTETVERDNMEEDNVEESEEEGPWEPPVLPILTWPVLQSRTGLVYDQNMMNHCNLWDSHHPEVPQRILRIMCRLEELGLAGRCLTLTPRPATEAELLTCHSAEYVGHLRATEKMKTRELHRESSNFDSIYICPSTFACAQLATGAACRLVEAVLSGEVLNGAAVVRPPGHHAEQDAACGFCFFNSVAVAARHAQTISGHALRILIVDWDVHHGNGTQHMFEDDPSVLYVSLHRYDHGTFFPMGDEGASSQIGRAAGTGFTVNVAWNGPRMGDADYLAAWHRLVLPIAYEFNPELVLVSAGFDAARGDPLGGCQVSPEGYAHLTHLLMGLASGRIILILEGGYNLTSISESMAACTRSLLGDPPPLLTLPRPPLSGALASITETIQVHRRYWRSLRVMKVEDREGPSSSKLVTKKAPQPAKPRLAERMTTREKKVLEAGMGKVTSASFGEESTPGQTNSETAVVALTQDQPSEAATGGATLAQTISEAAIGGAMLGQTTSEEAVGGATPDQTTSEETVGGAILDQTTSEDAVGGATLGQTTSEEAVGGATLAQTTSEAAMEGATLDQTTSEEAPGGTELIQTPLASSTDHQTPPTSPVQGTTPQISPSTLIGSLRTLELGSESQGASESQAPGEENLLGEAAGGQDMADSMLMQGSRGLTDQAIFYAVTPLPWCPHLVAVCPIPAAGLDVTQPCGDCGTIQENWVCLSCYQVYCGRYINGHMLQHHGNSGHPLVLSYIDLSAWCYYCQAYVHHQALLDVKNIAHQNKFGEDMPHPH

[7] = target: T3, Protein deacetylase HDAC6; assay: Inhibition of recombinant full-length human N-terminal GST-tagged HDAC6 expressed in baculovirus infected Sf9 insect cells using fluorescent-labelled Arg-His-Lys-Lys(Ac) as substrate measured after 2 hrs by fluorescence assay
[8] = target: T2, Histone deacetylase 1; assay: Inhibition of recombinant human HDAC1 expressed in HEK293T cells using Ac-KGLGK(Ac)-MCA as substrate measured after 30 mins by fluorescence assay
[9] = target: Histone deacetylase 4 (Homo sapiens, UniProt P56524); assay: Inhibition of recombinant human HDAC4 expressed in HEK293T cells using Ac-KGLGK(Ac)-MCA as substrate measured after 30 mins by fluorescence assay
[10] = test system: K562; assay: cells; conditions: Homo sapiens, K562, 48 h
[11] = target: T4, Protein deacetylase HDAC6 (Mus musculus, UniProt Q9Z2V5); assay: Inhibition of recombinant mouse HDAC6 expressed in HEK293T cells using Ac-KGLGK(Ac)-MCA as substrate measured after 30 mins by fluorescence assay
T4 sequence (Q9Z2V5 whole entry): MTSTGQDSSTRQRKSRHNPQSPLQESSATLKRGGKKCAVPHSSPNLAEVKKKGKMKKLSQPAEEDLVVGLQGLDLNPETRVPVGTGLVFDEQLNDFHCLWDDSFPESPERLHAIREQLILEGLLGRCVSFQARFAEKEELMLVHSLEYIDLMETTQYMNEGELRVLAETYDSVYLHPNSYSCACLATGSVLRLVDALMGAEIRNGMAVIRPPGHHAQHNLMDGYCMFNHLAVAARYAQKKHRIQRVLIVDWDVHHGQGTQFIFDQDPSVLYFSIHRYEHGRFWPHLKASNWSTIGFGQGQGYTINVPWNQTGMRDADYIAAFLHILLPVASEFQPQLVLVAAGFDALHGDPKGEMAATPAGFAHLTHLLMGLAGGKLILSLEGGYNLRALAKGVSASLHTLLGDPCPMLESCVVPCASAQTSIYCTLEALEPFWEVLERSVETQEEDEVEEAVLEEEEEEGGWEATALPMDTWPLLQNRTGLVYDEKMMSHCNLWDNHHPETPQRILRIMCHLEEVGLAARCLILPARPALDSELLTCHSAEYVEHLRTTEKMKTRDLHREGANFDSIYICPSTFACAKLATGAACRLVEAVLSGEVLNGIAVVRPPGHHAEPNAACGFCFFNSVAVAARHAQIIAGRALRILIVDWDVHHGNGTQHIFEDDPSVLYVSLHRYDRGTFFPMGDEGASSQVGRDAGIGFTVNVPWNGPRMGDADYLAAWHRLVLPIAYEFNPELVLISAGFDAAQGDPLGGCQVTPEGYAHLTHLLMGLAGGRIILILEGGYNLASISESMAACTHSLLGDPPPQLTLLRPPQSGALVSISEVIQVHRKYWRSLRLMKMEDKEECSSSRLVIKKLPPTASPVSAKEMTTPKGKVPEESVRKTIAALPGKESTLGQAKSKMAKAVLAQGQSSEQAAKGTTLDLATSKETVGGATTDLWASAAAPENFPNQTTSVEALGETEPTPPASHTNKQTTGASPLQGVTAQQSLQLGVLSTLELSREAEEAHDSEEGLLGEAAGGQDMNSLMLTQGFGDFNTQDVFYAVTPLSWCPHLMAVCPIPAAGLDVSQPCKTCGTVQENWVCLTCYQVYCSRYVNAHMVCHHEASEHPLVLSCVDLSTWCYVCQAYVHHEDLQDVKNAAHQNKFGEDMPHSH

[12] = test system: MCF7; assay: cells; conditions: Homo sapiens, MCF7, 48 h
[13] = test system: HeLa; assay: cells; conditions: Homo sapiens, 48 h
[14] = target: T2, Histone deacetylase 1; assay: Inhibition of HDAC1 (unknown origin) using (FAM)-labeled acetylated peptide as substrate measured after 17 hrs by fluorescence assay
[15] = target: Histone deacetylase; assay type: cell-based, Homo sapiens; conditions: hela
[16] = target: Histone deacetylase; assay type: cell-based, Homo sapiens; conditions: hela; remark: listed apart in the source
[17] = target: T3, Protein deacetylase HDAC6; assay: Inhibition of HDAC6 (unknown origin)
[18] = target: T2, Histone deacetylase 1; assay: Inhibition of HDAC1 (unknown origin)
[19] = target: T1, Histone deacetylase 8; assay: Inhibition of HDAC8 (unknown origin)
[20] = test system: MDA-MB-231; assay: cells; conditions: Homo sapiens

T2 sequence (Q13547 whole entry): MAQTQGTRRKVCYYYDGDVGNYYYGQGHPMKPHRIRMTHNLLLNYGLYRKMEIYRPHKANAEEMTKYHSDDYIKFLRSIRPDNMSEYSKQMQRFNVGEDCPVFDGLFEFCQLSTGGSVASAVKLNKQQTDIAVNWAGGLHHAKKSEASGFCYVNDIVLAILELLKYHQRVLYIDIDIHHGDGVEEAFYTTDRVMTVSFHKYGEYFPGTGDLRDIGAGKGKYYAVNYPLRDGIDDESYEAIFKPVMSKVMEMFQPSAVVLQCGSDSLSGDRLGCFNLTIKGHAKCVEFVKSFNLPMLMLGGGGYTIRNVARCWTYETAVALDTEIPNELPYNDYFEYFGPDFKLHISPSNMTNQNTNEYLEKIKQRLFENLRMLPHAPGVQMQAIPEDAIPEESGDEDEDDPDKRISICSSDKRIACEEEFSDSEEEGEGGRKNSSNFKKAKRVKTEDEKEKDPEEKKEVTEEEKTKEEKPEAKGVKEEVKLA
Chain of Histone deacetylase 2 (Q92769 whole entry, the tested form may be a part): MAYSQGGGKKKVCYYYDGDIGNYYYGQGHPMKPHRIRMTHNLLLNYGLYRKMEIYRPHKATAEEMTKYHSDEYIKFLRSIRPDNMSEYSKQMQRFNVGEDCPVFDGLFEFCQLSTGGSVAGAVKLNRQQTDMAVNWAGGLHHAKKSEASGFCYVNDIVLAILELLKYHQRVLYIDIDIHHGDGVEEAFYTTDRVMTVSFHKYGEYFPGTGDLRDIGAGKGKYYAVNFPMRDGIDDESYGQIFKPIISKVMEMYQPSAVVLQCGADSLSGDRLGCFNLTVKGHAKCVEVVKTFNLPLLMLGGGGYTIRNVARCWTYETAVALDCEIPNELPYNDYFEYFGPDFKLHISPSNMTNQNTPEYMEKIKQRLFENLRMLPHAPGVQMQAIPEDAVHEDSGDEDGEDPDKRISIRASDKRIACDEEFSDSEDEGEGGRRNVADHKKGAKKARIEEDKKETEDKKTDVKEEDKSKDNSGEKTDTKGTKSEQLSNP
Chain of Histone deacetylase 3/Nuclear receptor corepressor 2 (HDAC3/NCoR2) (O15379 whole entry, the tested form may be a part): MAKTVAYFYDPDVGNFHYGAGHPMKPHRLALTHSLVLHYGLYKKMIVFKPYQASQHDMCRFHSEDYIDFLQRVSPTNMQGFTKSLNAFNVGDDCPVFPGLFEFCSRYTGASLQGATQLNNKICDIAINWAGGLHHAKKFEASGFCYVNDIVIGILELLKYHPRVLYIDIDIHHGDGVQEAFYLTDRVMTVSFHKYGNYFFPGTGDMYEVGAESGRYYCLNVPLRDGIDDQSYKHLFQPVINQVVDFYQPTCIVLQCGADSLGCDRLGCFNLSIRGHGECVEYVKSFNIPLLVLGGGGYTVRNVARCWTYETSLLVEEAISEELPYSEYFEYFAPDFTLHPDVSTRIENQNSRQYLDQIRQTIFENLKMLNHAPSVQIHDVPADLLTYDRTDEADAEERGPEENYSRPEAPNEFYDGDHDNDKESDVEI
Chain of Histone deacetylase 3/Nuclear receptor corepressor 2 (HDAC3/NCoR2) (Q9Y618 whole entry, further chain, the tested form may be a part): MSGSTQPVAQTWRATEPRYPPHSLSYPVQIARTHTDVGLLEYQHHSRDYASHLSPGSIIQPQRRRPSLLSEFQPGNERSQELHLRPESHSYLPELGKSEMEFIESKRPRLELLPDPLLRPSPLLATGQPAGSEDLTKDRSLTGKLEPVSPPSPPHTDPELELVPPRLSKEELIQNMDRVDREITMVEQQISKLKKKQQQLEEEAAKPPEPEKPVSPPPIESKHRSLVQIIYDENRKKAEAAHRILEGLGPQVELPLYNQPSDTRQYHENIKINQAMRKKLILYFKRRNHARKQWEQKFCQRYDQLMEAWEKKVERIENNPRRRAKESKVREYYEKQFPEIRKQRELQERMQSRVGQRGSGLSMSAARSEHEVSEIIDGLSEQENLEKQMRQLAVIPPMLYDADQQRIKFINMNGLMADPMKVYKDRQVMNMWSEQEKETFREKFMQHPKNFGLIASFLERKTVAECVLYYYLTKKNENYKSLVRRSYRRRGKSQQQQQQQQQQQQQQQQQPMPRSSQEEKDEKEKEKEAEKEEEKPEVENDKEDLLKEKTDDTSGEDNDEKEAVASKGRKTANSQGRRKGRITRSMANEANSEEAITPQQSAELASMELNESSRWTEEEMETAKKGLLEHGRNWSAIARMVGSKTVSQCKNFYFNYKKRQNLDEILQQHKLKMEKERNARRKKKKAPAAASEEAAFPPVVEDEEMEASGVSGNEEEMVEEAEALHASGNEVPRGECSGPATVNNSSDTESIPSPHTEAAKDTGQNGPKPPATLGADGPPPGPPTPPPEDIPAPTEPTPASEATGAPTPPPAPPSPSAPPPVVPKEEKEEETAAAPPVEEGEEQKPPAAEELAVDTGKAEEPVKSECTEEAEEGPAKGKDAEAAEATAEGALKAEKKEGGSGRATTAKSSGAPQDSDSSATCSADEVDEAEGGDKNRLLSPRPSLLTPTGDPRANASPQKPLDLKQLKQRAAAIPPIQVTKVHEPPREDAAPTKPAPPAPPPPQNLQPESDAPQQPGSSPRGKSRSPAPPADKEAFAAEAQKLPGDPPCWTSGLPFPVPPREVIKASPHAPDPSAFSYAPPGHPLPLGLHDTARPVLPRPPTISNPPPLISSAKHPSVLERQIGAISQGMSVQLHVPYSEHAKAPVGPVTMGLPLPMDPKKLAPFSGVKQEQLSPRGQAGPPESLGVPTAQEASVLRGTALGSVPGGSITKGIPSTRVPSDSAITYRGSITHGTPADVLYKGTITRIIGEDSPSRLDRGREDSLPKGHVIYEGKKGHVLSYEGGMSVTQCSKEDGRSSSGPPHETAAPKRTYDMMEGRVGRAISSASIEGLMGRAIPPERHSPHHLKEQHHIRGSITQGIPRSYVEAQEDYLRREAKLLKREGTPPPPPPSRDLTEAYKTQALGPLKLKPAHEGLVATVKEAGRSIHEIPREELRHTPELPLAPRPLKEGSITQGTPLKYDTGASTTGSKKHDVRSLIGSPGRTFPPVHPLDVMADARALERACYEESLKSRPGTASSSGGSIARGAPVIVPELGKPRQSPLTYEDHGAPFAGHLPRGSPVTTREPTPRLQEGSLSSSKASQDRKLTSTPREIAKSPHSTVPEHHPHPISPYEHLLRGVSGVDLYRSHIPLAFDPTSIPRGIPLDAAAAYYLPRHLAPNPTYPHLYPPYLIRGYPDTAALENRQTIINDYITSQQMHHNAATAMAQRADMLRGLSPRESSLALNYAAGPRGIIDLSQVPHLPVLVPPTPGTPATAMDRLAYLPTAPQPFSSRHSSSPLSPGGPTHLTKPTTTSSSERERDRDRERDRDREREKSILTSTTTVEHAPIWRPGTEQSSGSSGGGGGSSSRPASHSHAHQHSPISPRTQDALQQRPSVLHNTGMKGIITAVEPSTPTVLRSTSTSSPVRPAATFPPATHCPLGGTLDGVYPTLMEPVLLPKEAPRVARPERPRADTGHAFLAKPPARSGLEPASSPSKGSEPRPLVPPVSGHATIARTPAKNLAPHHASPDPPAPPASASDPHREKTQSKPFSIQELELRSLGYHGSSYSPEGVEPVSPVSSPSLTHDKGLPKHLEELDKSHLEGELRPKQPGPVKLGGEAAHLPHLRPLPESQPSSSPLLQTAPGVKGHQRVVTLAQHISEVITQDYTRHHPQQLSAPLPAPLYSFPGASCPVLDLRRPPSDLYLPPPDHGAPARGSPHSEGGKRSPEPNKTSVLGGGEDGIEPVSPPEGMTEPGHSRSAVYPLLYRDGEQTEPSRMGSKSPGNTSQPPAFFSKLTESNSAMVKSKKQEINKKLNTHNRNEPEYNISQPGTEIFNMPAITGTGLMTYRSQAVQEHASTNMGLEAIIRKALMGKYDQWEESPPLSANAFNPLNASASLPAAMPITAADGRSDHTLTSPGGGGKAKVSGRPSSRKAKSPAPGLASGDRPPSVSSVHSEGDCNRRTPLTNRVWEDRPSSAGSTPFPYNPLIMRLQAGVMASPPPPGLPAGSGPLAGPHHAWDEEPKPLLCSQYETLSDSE
Chain of Histone deacetylase 4 (P56524 whole entry): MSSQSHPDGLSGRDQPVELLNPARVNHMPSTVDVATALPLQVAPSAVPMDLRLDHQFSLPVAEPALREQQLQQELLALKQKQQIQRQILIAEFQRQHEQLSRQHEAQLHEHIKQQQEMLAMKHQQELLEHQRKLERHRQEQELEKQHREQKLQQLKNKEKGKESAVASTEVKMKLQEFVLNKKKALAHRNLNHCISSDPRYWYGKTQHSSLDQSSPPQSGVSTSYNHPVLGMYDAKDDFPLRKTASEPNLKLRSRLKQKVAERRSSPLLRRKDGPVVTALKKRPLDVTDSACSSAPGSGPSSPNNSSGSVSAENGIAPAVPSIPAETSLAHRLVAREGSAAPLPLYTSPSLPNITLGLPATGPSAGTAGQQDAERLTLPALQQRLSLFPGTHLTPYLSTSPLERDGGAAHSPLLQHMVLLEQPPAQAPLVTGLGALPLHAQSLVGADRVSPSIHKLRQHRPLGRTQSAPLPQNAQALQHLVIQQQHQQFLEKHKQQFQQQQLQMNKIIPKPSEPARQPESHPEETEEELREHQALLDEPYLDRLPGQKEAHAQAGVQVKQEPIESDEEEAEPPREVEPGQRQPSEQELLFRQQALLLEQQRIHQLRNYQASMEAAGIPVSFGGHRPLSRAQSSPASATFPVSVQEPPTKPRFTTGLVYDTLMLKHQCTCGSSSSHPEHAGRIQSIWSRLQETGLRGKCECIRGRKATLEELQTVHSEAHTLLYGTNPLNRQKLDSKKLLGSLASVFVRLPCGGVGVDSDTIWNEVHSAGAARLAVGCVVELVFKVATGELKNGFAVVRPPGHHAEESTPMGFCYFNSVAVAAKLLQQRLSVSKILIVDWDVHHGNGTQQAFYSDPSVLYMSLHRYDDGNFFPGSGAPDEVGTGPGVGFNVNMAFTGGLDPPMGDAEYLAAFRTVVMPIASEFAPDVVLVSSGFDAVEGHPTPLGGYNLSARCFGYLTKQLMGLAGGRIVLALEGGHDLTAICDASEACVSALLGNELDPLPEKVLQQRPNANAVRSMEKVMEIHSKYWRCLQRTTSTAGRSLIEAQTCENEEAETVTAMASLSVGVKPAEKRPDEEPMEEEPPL

Structure (SMILES): O=C(CCCCCCn1cc(-c2ccc(C(=O)c3c(-c4ccc(O)cc4)sc4cc(O)ccc34)cc2)nn1)NO
- IC50 [1]: 1820 nM
- IC50 [2]: 748 nM
- IC50 [3]: 29900 nM
- IC50 [4]: 1030 nM

Structure (SMILES): O=C(/C=C/c1ccc(C(=O)NCCCOc2no[n+]([O-])c2S(=O)(=O)c2ccccc2)cc1)NO
- IC50 [5]: 460 nM
- IC50 [6]: 230 nM

Structure (SMILES): CCN(CC)c1ccc(C(=O)NO)cc1
- IC50 [7]: 6280 nM

Structure (SMILES): O=C(CCCCCn1cc(-c2ccc(C(=O)c3c(-c4ccc(O)cc4)sc4cc(O)ccc34)cc2)nn1)NO
- IC50 [1]: 19200 nM
- IC50 [2]: 5740 nM
- IC50 [3]: 23500 nM
- IC50 [4]: 839 nM

Structure (SMILES): Nc1ccccc1NC(=O)CCCCCCC(=O)Nc1cccc(-c2cn(-c3ccccc3)nn2)c1
- IC50 [14]: > 30000 nM

Structure (SMILES): CCn1cnc(-c2ccc(OC)cc2)c1-c1ccc(/C=C/C(=O)NO)cc1
- IC50 [15]: 504 nM
- IC50 [16]: 36 nM

Structure (SMILES): CC1CCCCC12NC(=O)[C@H](CCCCCC(=O)NO)NC(=O)[C@H]1CCCN1C(=O)[C@H](Cc1ccccc1)NC2=O (stereo not given in full)
- IC50 [8]: 10 nM
- IC50 [9]: 6 nM
- IC50 [10]: 876 nM
- IC50 [11]: 130 nM
- IC50 [12]: 31 nM
- IC50 [13]: 309 nM

Structure (SMILES): C[C@]12CC[C@@H]3c4ccc(O)cc4CC[C@H]3[C@@H]1CC[C@@]2(O)c1cn(CCCCC(=O)NO)nn1
- IC50 [17]: 8 nM
- IC50 [18]: 15 nM
- IC50 [19]: 11000 nM

Structure (SMILES): C[C@]12CC[C@@H]3c4ccc(O)cc4CC[C@H]3[C@@H]1CC[C@@]2(O)c1cn(CCCCCCC(=O)NO)nn1
- IC50 [17]: 32 nM
- IC50 [18]: 75 nM
- IC50 [19]: 4000 nM

Results, then the molecule that gave them:

- IC50 [5]: 420 nM
- IC50 [6]: 280 nM
Structure (SMILES): CC(CNC(=O)c1ccc(/C=C/C(=O)NO)cc1)Oc1no[n+]([O-])c1S(=O)(=O)c1ccccc1 (stereo not given)

- IC50 [5]: 260 nM
- IC50 [6]: 160 nM
Structure (SMILES): CNCCOc1no[n+]([O-])c1S(=O)(=O)c1ccccc1

- IC50 [8]: 15 nM
- IC50 [9]: 14 nM
- IC50 [10]: 104 nM
- IC50 [11]: 160 nM
- IC50 [12]: 26 nM
- IC50 [13]: 48 nM
Structure (SMILES): CC1CCCC2(C1)NC(=O)[C@H](CCCCCC(=O)NO)NC(=O)[C@H]1CCCN1C(=O)[C@H](Cc1ccccc1)NC2=O (stereo not given in full)

- IC50 [1]: 665 nM
- IC50 [2]: 128 nM
- IC50 [3]: 400 nM
- IC50 [4]: 168 nM
Structure (SMILES): O=C(CCCCCCCNC(=O)c1c(-c2ccc(O)cc2)sc2cc(O)ccc12)NO

- IC50 [7]: 540 nM
Structure (SMILES): O=C(NO)c1ccc(N2CCCC2)cc1

- IC50 [7]: 1.25 nM
Structure (SMILES): Cc1c(CN(C)C)c2ccccc2n1-c1ccc(C(=O)NO)cc1

- IC50 [17]: 13 nM
- IC50 [18]: 28 nM
- IC50 [19]: 450 nM
Structure (SMILES): C[C@]12CC[C@@H]3c4ccc(O)cc4CC[C@H]3[C@@H]1CC[C@@]2(O)c1cn(CCCCCCCC(=O)NO)nn1

- IC50 [1]: 2440 nM
- IC50 [2]: 214 nM
- IC50 [3]: 719 nM
- IC50 [4]: 596 nM
Structure (SMILES): O=C(CCCCCCNC(=O)c1c(-c2ccc(O)cc2)sc2cc(O)ccc12)NO

- IC50 [20]: 2140 nM
Structure (SMILES): O=C(CCCCCCC(=O)Nc1ccccc1)NO [VORINOSTAT]
